These results are taken from ChEMBL document CHEMBL1141411, “Structural characterization of daptomycin analogues A21978C1-3(d-Asn11) produced by a recombinant Streptomyces roseosporus strain” (2007).

Molecules are shown by their SMILES. ≈ marks a conversion by molar mass, not a printed value.

The test system of this test is Staphylococcus aureus. As to the kind of experiment: Antibacterial activity against Staphylococcus aureus 42 by broth microdilution method. The format is functional. Background: Dilution methods test growth across graded concentrations, often in twofold steps.
By MIC is commonly meant the lowest concentration found to suppress growth. High values mean a need for much substance, low ones inhibition by little substance. Molecule `CCCCCCCCCC(=O)N[C@@H](Cc1c[nH]c2ccccc12)C(=O)N[C@H](CC(N)=O)C(=O)N[C@@H](CC(=O)O)C(=O)N[C@@H]1C(=O)NCC(=O)N[C@@H](CCCN)C(=O)N[C@@H](CC(=O)O)C(=O)N[C@H](C)C(=O)N[C@@H](CC(=O)O)C(=O)NCC(=O)N[C@H](CO)C(=O)N[C@@H]([C@H](C)CC(=O)O)C(=O)N[C@@H](CC(=O)c2ccccc2N)C(=O)O[C@@H]1C` came in with a minimum inhibitory concentration (MIC) of 0.6 µM (≈ 0.972 µg/mL). That is a sub-micromolar value.

Turning to `CC(C)CCCCCCCCC(=O)N[C@@H](Cc1c[nH]c2ccccc12)C(=O)N[C@H](CC(N)=O)C(=O)N[C@@H](CC(=O)O)C(=O)N[C@@H]1C(=O)NCC(=O)N[C@@H](CCCN)C(=O)N[C@@H](CC(=O)O)C(=O)N[C@H](C)C(=O)N[C@@H](CC(=O)O)C(=O)NCC(=O)N[C@H](CC(N)=O)C(=O)N[C@@H]([C@H](C)CC(=O)O)C(=O)N[C@@H](CC(=O)c2ccccc2N)C(=O)O[C@@H]1C`, it took 0.3 µM (≈ 0.503 µg/mL) to inhibit growth (MIC). `CCC(C)CCCCCCC(=O)N[C@@H](Cc1c[nH]c2ccccc12)C(=O)N[C@H](CC(N)=O)C(=O)N[C@@H](CC(=O)O)C(=O)N[C@@H]1C(=O)NCC(=O)N[C@@H](CCCN)C(=O)N[C@@H](CC(=O)O)C(=O)N[C@H](C)C(=O)N[C@@H](CC(=O)O)C(=O)NCC(=O)N[C@H](CC(N)=O)C(=O)N[C@@H]([C@H](C)CC(=O)O)C(=O)N[C@@H](CC(=O)c2ccccc2N)C(=O)O[C@@H]1C` (some centres undefined) had a minimum inhibitory concentration (MIC) of 0.6 µM (≈ 0.997 µg/mL).

Take `CCC(C)CCCCCCCCC(=O)N[C@@H](Cc1c[nH]c2ccccc12)C(=O)N[C@H](CC(N)=O)C(=O)N[C@@H](CC(=O)O)C(=O)N[C@@H]1C(=O)NCC(=O)N[C@@H](CCCN)C(=O)N[C@@H](CC(=O)O)C(=O)N[C@H](C)C(=O)N[C@@H](CC(=O)O)C(=O)NCC(=O)N[C@H](CC(N)=O)C(=O)N[C@@H]([C@H](C)CC(=O)O)C(=O)N[C@@H](CC(=O)c2ccccc2N)C(=O)O[C@@H]1C` (some centres undefined): the lowest concentration to inhibit growth (MIC) was 0.15 µM (≈ 0.253 µg/mL).
